Experiments:
Cannabinoid receptor 2 = Cannabinoid receptor 2 (Homo sapiens, UniProt P34972); test: Displacement of [3H]CP-55940 from CB2 receptor
Cannabinoid receptor 1 = Cannabinoid receptor 1 (Homo sapiens, UniProt P21554); test: Displacement of [3H]CP-55940 from CB1 receptor
[1] = Selectivity ratio of Ki for CB1 receptor to Ki for CB2 receptor

Sequence of Cannabinoid receptor 2 (P34972 whole entry): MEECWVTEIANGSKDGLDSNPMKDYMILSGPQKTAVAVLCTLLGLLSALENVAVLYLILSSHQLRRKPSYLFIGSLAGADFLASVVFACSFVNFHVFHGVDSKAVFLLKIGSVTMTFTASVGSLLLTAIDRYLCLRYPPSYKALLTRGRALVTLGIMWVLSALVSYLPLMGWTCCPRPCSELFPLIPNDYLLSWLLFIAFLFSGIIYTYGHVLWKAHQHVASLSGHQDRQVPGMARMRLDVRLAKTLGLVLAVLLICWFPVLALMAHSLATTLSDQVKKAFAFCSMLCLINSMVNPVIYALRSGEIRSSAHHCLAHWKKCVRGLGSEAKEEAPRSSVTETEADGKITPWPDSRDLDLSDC
Sequence of Cannabinoid receptor 1 (P21554 whole entry): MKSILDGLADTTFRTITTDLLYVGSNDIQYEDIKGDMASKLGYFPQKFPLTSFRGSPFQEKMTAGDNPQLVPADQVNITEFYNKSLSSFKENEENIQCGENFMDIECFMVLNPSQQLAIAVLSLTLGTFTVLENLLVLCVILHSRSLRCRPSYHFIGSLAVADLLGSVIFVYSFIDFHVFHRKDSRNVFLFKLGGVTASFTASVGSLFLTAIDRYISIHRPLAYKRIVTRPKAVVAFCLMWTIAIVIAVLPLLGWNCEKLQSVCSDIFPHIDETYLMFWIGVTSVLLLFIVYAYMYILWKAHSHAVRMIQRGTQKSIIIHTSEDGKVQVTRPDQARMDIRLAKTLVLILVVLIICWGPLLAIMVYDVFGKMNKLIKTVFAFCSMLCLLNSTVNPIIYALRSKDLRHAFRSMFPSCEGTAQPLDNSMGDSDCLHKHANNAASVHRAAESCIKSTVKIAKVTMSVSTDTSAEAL

| SMILES | Ki (Cannabinoid receptor 2) [µM] | Ki (Cannabinoid receptor 1) [µM] | Ratio Ki [1] |
| --- | --- | --- | --- |
| CCCCCc1cc(NC(C)=O)c2c(c1)OC(C)(C)[C@@H]1CCC(C)=C[C@@H]21 | 1.4 | > 3 |  |
| CCCCCc1cc(NC(=O)c2ccncc2)c2c(c1)OC(C)(C)[C@@H]1CCC(C)=C[C@@H]21 | 1.77 | > 3 |  |
| CCCCCc1cc2c(c(C(=O)NCC(N)=O)c1)[C@@H]1C=C(C)CC[C@H]1C(C)(C)O2 | > 3 | > 3 |  |
| CCCCCc1cc(NC(=O)NC)c2c(c1)OC(C)(C)[C@@H]1CCC(C)=C[C@@H]21 | 2.05 | > 3 |  |
| CCCCCCC(C)(C)c1cc(NC(=O)NC)c2c(c1)OC(C)(C)[C@@H]1CCC(C)=C[C@@H]21 | 0.257 | 0.333 | 1 |
| CCCCCc1cc(C#N)c2c(c1)OC(C)(C)[C@@H]1CCC(C)=C[C@@H]21 | 0.387 | 1.72 | 3 |
| CCCCCc1cc2c(c(C(=O)NC)c1)[C@@H]1C=C(C)CC[C@H]1C(C)(C)O2 | 1.26 | > 3 |  |
| CCCCCc1cc(NS(C)(=O)=O)c2c(c1)OC(C)(C)[C@@H]1CCC(C)=C[C@@H]21 | 1.72 | > 3 |  |
| CCCCCCC(C)(C)c1cc(NC(C)=O)c2c(c1)OC(C)(C)[C@@H]1CCC(C)=C[C@@H]21 | 0.216 | 1.34 | 6 |
| CCCCCCC(C)(C)c1cc(N)c2c(c1)OC(C)(C)[C@@H]1CCC(C)=C[C@@H]21 | 0.0029 | 0.0117 | 4 |
| CCCCCc1cc(NC(N)=O)c2c(c1)OC(C)(C)[C@@H]1CCC(C)=C[C@@H]21 | > 3 | > 3 |  |
| CCCCCc1cc(NC(=O)CN(C)C)c2c(c1)OC(C)(C)[C@@H]1CCC(C)=C[C@@H]21 | > 3 | > 3 |  |
| CCCCCc1cc(CNS(C)(=O)=O)c2c(c1)OC(C)(C)[C@@H]1CCC(C)=C[C@@H]21 | > 3 | > 3 |  |
| CCCCCc1cc2c(c(N(C)C)c1)[C@@H]1C=C(C)CC[C@H]1C(C)(C)O2 | > 3 | > 3 |  |
| CCCCCc1cc2c(c([S+](C)[O-])c1)[C@@H]1C=C(C)CC[C@H]1C(C)(C)O2 (single isomer, unassigned; diastereomer A) | 1.93 | > 3 |  |
| CCCCCc1cc2c(c(C(N)=O)c1)[C@@H]1C=C(C)CC[C@H]1C(C)(C)O2 | 2.19 | > 3 |  |
| CCCCCc1cc(CNC(N)=O)c2c(c1)OC(C)(C)[C@@H]1CCC(C)=C[C@@H]21 | 0.782 | > 3 |  |
| CCCCCc1cc2c(c(C(=O)N(C)C)c1)[C@@H]1C=C(C)CC[C@H]1C(C)(C)O2 | 1.21 | > 3 |  |
| CCCCCc1cc2c(c(SC)c1)[C@@H]1C=C(C)CC[C@H]1C(C)(C)O2 | 0.469 | 0.955 | 2 |
| CCCCCc1cc2c(c([S+](C)[O-])c1)[C@@H]1C=C(C)CC[C@H]1C(C)(C)O2 (single isomer, unassigned; diastereomer B) | > 3 | > 3 |  |
| CCCCCc1cc(CNC(C)=O)c2c(c1)OC(C)(C)[C@@H]1CCC(C)=C[C@@H]21 | 1.5 | > 3 |  |
| CCCCCCC(C)(C)c1cc(O)c2c(c1)OC(C)(C)[C@@H]1CCC(C)=C[C@@H]21 | 0.0002 | 0.00024 | 1 |
| CCCCCc1cc(N)c2c(c1)OC(C)(C)[C@@H]1CCC(C)=C[C@@H]21 | 0.215 | 0.616 | 3 |
| CCCCCc1cc2c(c(C(=O)NC(CO)CO)c1)[C@@H]1C=C(C)CC[C@H]1C(C)(C)O2 | 2 | > 3 |  |
| CCCCCc1cc2c(c(C(=O)O)c1)[C@@H]1C=C(C)CC[C@H]1C(C)(C)O2 | > 3 | > 3 |  |
| CCCCCc1cc(NC(=O)OC)c2c(c1)OC(C)(C)[C@@H]1CCC(C)=C[C@@H]21 | 1.4 | > 3 |  |
| CCCCCCC(C)(C)c1cc(NS(C)(=O)=O)c2c(c1)OC(C)(C)[C@@H]1CCC(C)=C[C@@H]21 | 0.255 | 1.84 | 7 |
| CCCCCc1cc(CN)c2c(c1)OC(C)(C)[C@@H]1CCC(C)=C[C@@H]21 | > 3 | > 3 |  |
| CCCCCCC(C)(C)c1cc(NC(=O)c2ccncc2)c2c(c1)OC(C)(C)[C@@H]1CCC(C)=C[C@@H]21 | 1.09 | > 3 | > 3 |
| CCCCCCC(C)(C)c1cc(C#N)c2c(c1)OC(C)(C)[C@@H]1CCC(C)=C[C@@H]21 | 0.0053 | 0.0678 | 13 |

Reference: ChEMBL document CHEMBL1156861, “Synthesis and structure-activity relationship of substitutions at the C-1 position of Delta9-tetrahydrocannabinol” (Bioorg Med Chem Lett, 2010)
